The supplement of paper PMC10307832

Compound: COc1ccc(-c2ccc3c(N4CCOC[C@@H]4C)nc(N4CCOC[C@@H]4C)nc3n2)cc1CO [AZD8055] + Cc1cc(Nc2cc(N3CCN(C)CC3)nc(Sc3ccc(NC(=O)C4CC4)cc3)n2)n[nH]1 [Tozasertib] (partner 0.1 µM)
Assay: relative viability (nuclei count vs DMSO), 5 days (fraction); higher = more cells survive
Method in brief: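 Nuclei were stained with Hoechst during a one-step fixation (final 0.05% Triton X-100, 1% formaldehyde, 1 ug/ml Hoechst) carried out 5 days after dosing, then counted on 4× images. The cells, lung cancer lines in 1536-well plates, had been dosed by pin tool the day after seeding with one drug alone or a fixed anchor-drug dose plus five library-drug doses (not always all listed) in √10 steps. Relative viability is the nuclei count in treated wells divided by that in vehicle wells, and each value is the median of duplicate plates.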

Cell Line | relative viability (first compound 0.01 µM) | relative viability (first compound 0.03162 µM) | relative viability (first compound 0.1 µM) | relative viability (first compound 0.3162 µM) | relative viability (first compound 1 µM)
NCI-H650 | 0.817 | 0.711 | 0.601 | 0.381 | 0.333
NCI-H661 | 0.329 | 0.376 | 0.376 | 0.356 | 0.359
NCI-H727 | 0.849 | 0.77 | 0.499 | 0.414 | 0.487
NCI-H838 | 0.293 | 0.27 | 0.248 | 0.184 | 0.204
NCI-H1355 | 0.483 | 0.5 | 0.399 | 0.278 | 0.228
NCI-H1395 | 0.752 | 0.581 | 0.562 | 0.488 | 0.44
NCI-H1437 | 0.437 | 0.458 | 0.496 | 0.373 | 0.238
NCI-H1648 | 0.461 | 0.702 | 0.34 | 0.232 | 0.226
NCI-H1650 | 0.366 | 0.446 | 0.422 | 0.534 | 0.252
NCI-H1651 | 0.695 | 0.64 | 0.694 | 0.414 | 0.317
NCI-H1666 | 0.623 | 0.862 | 0.589 | 0.523 | 0.51
NCI-H1734 | 0.234 | 0.26 | 0.23 | 0.194 | 0.196
NCI-H1755 | 0.551 | 0.555 | 0.449 | 0.429 | 0.437
NCI-H1793 | 0.299 | 0.219 | 0.154 | 0.136 | 0.145
NCI-H1915 | 0.533 | 0.433 | 0.46 | 0.387 | 0.35
NCI-H1944 | 0.243 | 0.253 | 0.206 | 0.171 | 0.166
NCI-H1975 | 0.804 | 0.619 | 0.375 | 0.189 | 0.178
NCI-H1993 | 0.55 | 0.534 | 0.518 | 0.47 | 0.526

Cell Line | relative viability (first compound 0.01 µM) | relative viability (first compound 0.03162 µM) | relative viability (first compound 0.1 µM) | relative viability (first compound 0.3162 µM) | relative viability (first compound 1 µM)
NCI-H2009 | 0.763 | 0.735 | 0.723 | 0.535 | 0.279
NCI-H2023 | 0.314 | 0.325 | 0.258 | 0.115 | 0.109
NCI-H2085 | 0.775 | 0.759 | 0.703 | 0.388 | 0.338
NCI-H2087 | 0.276 | 0.242 | 0.2 | 0.189 | 0.162
NCI-H2126 | 0.844 | 0.829 | 0.687 | 0.427 | 0.375
NCI-H2170 | 0.794 | 0.732 | 0.485 | 0.349 | 0.239
NCI-H2228 | 0.222 | 0.296 | 0.155 | 0.143 | 0.158
NCI-H2342 | 0.477 | 0.423 | 0.395 | 0.345 | 0.371
NCI-H2347 | 0.543 | 0.515 | 0.519 | 0.305 | 0.252
NCI-H2405 | 0.812 | 0.815 | 0.676 | 0.448 | 0.344
NCI-H3122 | 0.465 | 0.375 | 0.315 | 0.178 | 0.132
PC-3 [JPC-3] | 0.864 | 0.993 | 0.978 | 0.614 | 0.431
PC-14 | 0.834 | 0.762 | 0.535 | 0.109 | 0.0948
RERF-LC-KJ | 0.519 | 0.556 | 0.421 | 0.333 | 0.299
SK-LU-1 | 0.311 | 0.333 | 0.287 | 0.217 | 0.213
SK-MES-1 | 0.904 | 0.837 | 0.625 | 0.434 | 0.274
SW 1573 | 0.174 | 0.229 | 0.241 | 0.155 | 0.135
UMC-11 | 0.196 | 0.224 | 0.208 | 0.2 | 0.211
